Reference: patent US8822449B2, “Substituted aminoindanes and analogs thereof, and the pharmaceutical use thereof” (Sanofi, priority 2008, dated 2014)

Target: T1, sodium-proton exchanger of subtype 3 (NHE3) (Homo sapiens, UniProt P48764)
T1 construct: expressed in transfected cells
T1 sequence (P48764 26-834): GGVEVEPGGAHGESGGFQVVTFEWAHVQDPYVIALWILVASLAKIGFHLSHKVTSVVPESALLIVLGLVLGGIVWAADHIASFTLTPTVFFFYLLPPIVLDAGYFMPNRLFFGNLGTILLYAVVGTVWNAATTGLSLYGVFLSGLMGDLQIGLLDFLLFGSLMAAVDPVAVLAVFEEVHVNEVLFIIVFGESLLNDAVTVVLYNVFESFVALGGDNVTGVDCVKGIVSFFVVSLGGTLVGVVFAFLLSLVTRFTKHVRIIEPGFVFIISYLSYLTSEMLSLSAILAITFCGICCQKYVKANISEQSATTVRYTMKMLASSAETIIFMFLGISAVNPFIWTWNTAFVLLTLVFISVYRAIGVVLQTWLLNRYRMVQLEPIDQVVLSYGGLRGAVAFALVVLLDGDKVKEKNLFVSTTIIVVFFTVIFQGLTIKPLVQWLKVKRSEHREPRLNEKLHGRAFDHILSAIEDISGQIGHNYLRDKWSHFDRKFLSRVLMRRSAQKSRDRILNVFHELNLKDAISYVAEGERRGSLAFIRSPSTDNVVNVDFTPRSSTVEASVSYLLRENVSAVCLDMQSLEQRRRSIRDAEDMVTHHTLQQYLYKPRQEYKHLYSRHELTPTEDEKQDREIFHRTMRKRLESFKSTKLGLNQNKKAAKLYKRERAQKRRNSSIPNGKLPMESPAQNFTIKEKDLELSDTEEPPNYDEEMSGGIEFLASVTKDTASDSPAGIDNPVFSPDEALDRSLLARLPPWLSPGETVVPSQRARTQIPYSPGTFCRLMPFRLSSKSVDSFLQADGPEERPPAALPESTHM
Assay: Recovery of intracellular pH (pHi) after acidification in LAP1 cells stably expressing NHE3 (BCECF fluorescence, FLIPR)
Type: cell-based
Settings: LAP1 cells stably expressing NHE3; pH recovery after acidification; range 1 is % inhibition at 10 μM; read-out: Activity range (inhibitory effect on NHE3)

Row | SMILES | IC50 | inhibition at 10 µM
1 | N[C@@H]1CCCN([C@H]2Cc3c(Cl)cc(Cl)cc3[C@@H]2Oc2ccc(S(N)(=O)=O)c(Cl)c2Cl)C1 [Example 550, 4-[trans-(1S,2S)-2-((R)-3-aminopiperidin-1-yl)-4,6-dichloroindan-1-yloxy]-2,3-dichlorobenzenesulfonamide] | < 1000 nM | 
2 | NS(=O)(=O)c1ccc(O[C@H]2c3ccccc3C[C@@H]2CN2CCCC2)cc1Cl (racemic) [Example 389, 2-chloro-4-(2-pyrrolidin-1-ylmethylindan-1-yloxy)benzenesulfonamide] | 1000 to 10000 nM | 
3 | O=C1CCCN1c1cccc(O[C@H]2c3cc(Cl)cc(Cl)c3C[C@@H]2N2CC[C@@H](O)C2)c1 [Example 315, 1-{3-[(1S,2S)-4,6-dichloro-2-((R)-3-hydroxypyrrolidin-1-yl)indan-1-yloxy]phenyl}pyrrolidin-2-one] | 1000 to 10000 nM | 
4 | O=C(O[C@H]1c2ccccc2C[C@@H]1N1CCCC1)c1ccc(N2C(=O)CCC2=O)cc1 [Example 458, 4-(2,5-dioxopyrrolidin-1-yl)benzoic acid (1S,2S)-2-pyrrolidin-1-ylindan-1-yl ester] |  | 20 to 50%
5 | CN(C)C1Cc2ccccc2C1Oc1ccc(S(N)(=O)=O)c(Cl)c1Cl (racemic) [Example 356, 2,3-dichloro-4-(rac-trans-(1,2)-2-dimethylaminoindan-1-yloxy)benzenesulfonamide] | < 1000 nM | 
6 | COc1ccc(O[C@H]2c3ccccc3CC[C@@H]2N2CCC[C@@H](N)C2)c(F)c1 (racemic) [Example 42, (R)-1-[rac-trans-(1,2)-1-(2-fluoro-4-methoxyphenoxy)-1,2,3,4-tetrahydronaphthalen-2-yl]piperidin-3-ylamine] |  | 20 to 50%
7 | CN1CCN(S(=O)(=O)c2ccc(O[C@H]3c4cc(Cl)cc(Cl)c4C[C@@H]3N3CC[C@@H](O)C3)cc2)CC1 [Example 742, (R)-1-{trans-(1S,2S)-4,6-Dichloro-1-[4-(4-methyl-piperazine-1-sulfonyl)-phenoxy]-indan-2-yl}-pyrrolidin-3-ol] | 1000 to 10000 nM | 
8 | COc1cccc(F)c1O[C@@H]1c2ccccc2C[C@H]1N1CCC(CN)C1 (mixture of isomers) [Example 605, C-{1-[rac-trans-(1,2)-1-(2-fluoro-6-methoxyphenoxy)indan-2-yl]pyrrolidin-3-yl}methylamine] | 1000 to 10000 nM | 
9 | NC(=O)Nc1cccc(O[C@@H]2c3ccccc3C[C@H]2N2CCC(N)C2)c1 (mixture of isomers) [Example 234, {3-[rac-trans-(1,2)-2-(3-aminopyrrolidin-1-yl)indan-1-yloxy]phenyl}urea] | 1000 to 10000 nM | 
10 | CS(=O)(=O)c1cccc(O[C@H]2c3ccccc3C[C@@H]2N2CCCC2)c1 (racemic) [Example 269, 1-[rac-trans-(1,2)-1-(3-methanesulfonylphenoxy)indan-2-yl]pyrrolidine] |  | 20 to 50%
11 | O=C1CNC(=O)N1c1ccc(O[C@H]2c3cc(Cl)cc(F)c3C[C@@H]2NC2CCCC2)c(F)c1 [Example 753, 3-[4-(trans-(1S,2S)-6-Chloro-2-cyclopentylamino-4-fluoro-indan-1-yloxy)-3-fluoro-phenyl]-imidazolidine-2,4-dione] | 1000 to 10000 nM | 
12 | N[C@@H]1CCCN([C@H]2CCc3ccccc3[C@@H]2Oc2cccc(OC(F)F)c2)C1 (racemic) [Example 56, (R)-1-[rac-trans-(1,2)-1-(3-difluoromethoxyphenoxy)-1,2,3,4-tetrahydronaphthalen-2-yl]piperidin-3-ylamine] |  | 20 to 50%
13 | CS(=O)(=O)c1ccc(O[C@H]2c3cc(Cl)cc(Cl)c3C[C@@H]2N2CCC[C@H]2CN2CCCC2)cc1 [Example 195, (S)-1-[trans-(1S,2S)-4,6-dichloro-1-(4-methanesulfonylphenoxy)indan-2-yl]-2-pyrrolidin-1-ylmethylpyrrolidine] | < 1000 nM | 
14 | O=C1CCCN1c1ccc(O[C@H]2c3cc(Cl)cc(Cl)c3C[C@@H]2N2CC[C@@H](O)C2)cc1 [Example 333, 1-{4-[trans-(1S,2S)-4,6-dichloro-2-((R)-3-hydroxypyrrolidin-1-yl)indan-1-yloxy]phenyl}pyrrolidin-2-one] | < 1000 nM | 
15 | NCC1CCN([C@@H]2Cc3ccccc3[C@H]2Oc2ccc(F)cc2F)C1 (mixture of isomers) [Example 602, C-{1-[rac-trans-(1,2)-1-(2,4-difluorophenoxy)indan-2-yl]pyrrolidin-3-yl}methylamine] | 1000 to 10000 nM | 
16 | O=c1[nH]ccn1-c1ccc(O[C@H]2c3cc(Cl)cc(Cl)c3C[C@@H]2N2CC[C@@H](O)C2)c(F)c1 [Example 323, 1-{4-[(1S,2S)-4,6-dichloro-2-((R)-3-hydroxypyrrolidin-1-yl)indan-1-yloxy]-3-fluorophenyl}-1,3-dihydroimidazol-2-one] | < 1000 nM | 
17 | Cc1cc(O[C@H]2c3cc(Cl)cc(F)c3C[C@@H]2N2CCCC2)ccc1S(C)(=O)=O (racemic) [Example 291, 1-[rac-trans-(1,2)-6-chloro-4-fluoro-1-(4-methanesulfonyl-3-methylphenoxy)indan-2-yl]pyrrolidine] | 1000 to 10000 nM | 
18 | Cc1ccc(O[C@H]2c3ccccc3C[C@@H]2N2CCCC2)c(-c2c(C)noc2C)c1 [Example 408, 3,5-dimethyl-4-[5-methyl-2-(trans-(1S,2S)-2-pyrrolidin-1-ylindan-1-yloxy)phenyl]isoxazole] |  | 20 to 50%
19 | COc1cc(Cl)cc(O[C@H]2c3ccccc3CC[C@@H]2N2CCC[C@H](N)C2)c1 (racemic) [Example 163, (S)-1-[rac-trans-(1,2)-1-(3-chloro-5-methoxyphenoxy)-1,2,3,4-tetrahydronaphthalen-2-yl]piperidin-3-ylamine] | 1000 to 10000 nM | 
20 | Fc1ccc(O[C@H]2c3ccccc3CC[C@@H]2N2CCOCC2)c2ncccc12 (racemic) [Example 586, 5-fluoro-8-(rac-trans-(1,2)-2-morpholin-4-yl-1,2,3,4-tetrahydronaphthalen-1-yloxy)quinoline] |  | 20 to 50%
21 | CN(C)C(=O)Cc1ccc(O[C@H]2c3ccccc3C[C@@H]2N2CCCC2)cc1 (racemic) [Example 634, N,N-dimethyl-2-[4-(rac-trans-(1,2)-2-pyrrolidin-1-ylindan-1-yloxy)phenyl]acetamide] | 1000 to 10000 nM | 
22 | CC1(C)NC(=O)N(c2ccc(F)c(O[C@H]3c4cc(Cl)cc(Cl)c4C[C@@H]3N3CC[C@@H](O)C3)c2)C1=O [Example 416, 3-{3-[(1S,2S)-4,6-dichloro-2-((R)-3-hydroxypyrrolidin-1-yl)indan-1-yloxy]-4-fluorophenyl}-5,5-dimethylimidazolidine-2,4-dione] | 1000 to 10000 nM | 
23 | COc1cc(Cl)cc(O[C@H]2c3ccccc3CC[C@@H]2N2CCC[C@@H](N)C2)c1 (racemic) [Example 54, (R)-1-[rac-trans-(1,2)-1-(3-chloro-5-methoxyphenoxy)-1,2,3,4-tetrahydronaphthalen-2-yl]piperidin-3-ylamine] |  | 20 to 50%
24 | N[C@@H]1CCCN([C@H]2CCc3ccccc3[C@@H]2Oc2ccccc2OC(F)(F)F)C1 (racemic) [Example 50, (R)-1-[rac-trans-(1,2)-1-(2-trifluoromethoxyphenoxy)-1,2,3,4-tetrahydronaphthalen-2-yl]piperidin-3-ylamine] |  | 20 to 50%
25 | Cc1cn(-c2ccc(O[C@H]3c4cc(Cl)cc(F)c4C[C@@H]3N3CC[C@@H](O)C3)cc2)c(C(C)C)n1 [Example 720, (R)-1-{trans-(1S,2S)-6-Chloro-4-fluoro-1-[4-(2-isopropyl-4-methyl-imidazol-1-yl)-phenoxy]-indan-2-yl}-pyrrolidin-3-ol] | 1000 to 10000 nM | 
26 | O=C1CNC(=O)N1c1ccc(F)c(O[C@H]2c3cc(Cl)cc(F)c3C[C@@H]2N2CC[C@@H](O)C2)c1 [Example 421, 3-{3-[(1S,2S)-6-chloro-4-fluoro-2-((R)-3-hydroxypyrrolidin-1-yl)indan-1-yloxy]-4-fluorophenyl}imidazolidine-2,4-dione] | 1000 to 10000 nM | 
27 | Cn1ccn(-c2ccc(Cl)c(O[C@H]3c4cc(F)cc(F)c4C[C@@H]3N3CC[C@@H](O)C3)c2)c1=O [Example 338, 1-{4-chloro-3-[(1S,2S)-4,6-difluoro-2-((R)-3-hydroxypyrrolidin-1-yl)indan-1-yloxy]phenyl}-3-methyl-1,3-dihydroimidazol-2-one] | 1000 to 10000 nM | 
28 | CS(=O)(=O)c1ccc(O[C@H]2c3ccccc3C[C@@H]2N2CCC[C@@H](NCCC(F)(F)F)C2)cc1 [Example 220, {(R)-1-[trans-(1S,2S)-1-(4-methanesulfonylphenoxy)indan-2-yl]piperidin-3-yl}-(3,3,3-trifluoropropyl)amine] | < 1000 nM | 
29 | O=C(O[C@H]1c2ccccc2C[C@@H]1N1CCCC1)c1ccc(N2CCCC2=O)cc1 [Example 461, 4-(2-Oxopyrrolidin-1-yl)benzoic acid (1S,2S)-2-pyrrolidin-1-ylindan-1-yl ester] |  | 20 to 50%
30 | N#Cc1c(F)cccc1O[C@@H]1c2ccccc2C[C@H]1N1CCC(CN)C1 (mixture of isomers) [Example 374, 2-[rac-trans-(1,2)-2-(3-aminomethylpyrrolidin-1-yl)indan-1-yloxy]-6-fluorobenzonitrile] | 1000 to 10000 nM | 
